The text below walks through data of US20090227572A1, “TREATMENT OF DIABETIC WOUNDS AND PERIPHERAL NEUROPATHIES” (Cytrx Corporation, priority 2007, published 2009).

For data set [1] the following is noted: mice, previously determined; cited from earlier work.
A short description of data set [2]: Morbidity, mortality and body weights in the wound healing study (Example 1). Format: in vivo, mice. As to the method: The mice began daily dosing as detailed in Table 1 on the day of wounding. The mice continued to receive daily treatment until wound closure as determined by the study director and the client. Blood glucose levels were measured by glucometer prior to the first scheduled dosing and weekly thereafter-using blood collected by tail nick. Body weights were measured weekly beginning prior to treatment. Clinical observations were conducted weekly.

For data set [3] the following is noted: rat, subchronic studies; cited from earlier work.
Data set [4] has as its system Homozygous, diabetic mice. Briefly: Wound healing in homozygous diabetic mice, systemic or topical administration (Example 2). As to conditions: topical administration, 4% w/v aqueous solution, FIG. 7. The data set is classed as in vivo. The method, then: Homozygous, diabetic mice described above, and wounded in the manner described above in Example 1, were treated by topical administration of iroxanadine or arimoclomol. A 4% w/v aqueous solution of arimoclomol were separately administered topically to the wounded position. […] dosage of iroxanadine was at 10 mg/kg IP, b.i.d., a relatively low concentration.

In data set [5] the test system is BKS.Cg-m^+/+ Lepr^db/J homozygous mice. Briefly: Wound healing in diabetic db/db mice, daily oral dosing (Example 1). Format: in vivo.
Source text: Seventy male BKS.Cg-m^+/+ Lepr^db/J homozygous mice were housed and handled for seven (7) days prior to commencement of the procedure for acclimation purposes. The mice weighed 26.1-41.2 g on Day 0, at the age of 8 weeks. As control, twenty male BKS.Cg-m^+/− Lepr^db/J heterozygous mice were handled similarly. These mice weighed 19.6-25.1 g on Day 0, at the age of 8 weeks. Mice were divided into Groups (1) to (9), each group consisting of 10 mice.
On Day 0, two full-thickness wounds were made on each mouse in Groups A-I (n=80). […]
Immediately following the generation of the skin wound, the original wound was traced by using a fine point maker to outline the perimeter of the wound onto transparency paper (the mouse was immobilized using isoflurane anesthesia for this procedure), and wound size was then traced every 3 days. […] Outlines were digitized, quantified and analyzed using computer imaging software as described below.
The mice began daily dosing as detailed in Table 1 on the day of wounding. The mice continued to receive daily treatment until wound closure as determined by the study director and the client. Blood glucose levels were measured by glucometer prior to the first scheduled dosing and weekly thereafter-using blood collected by tail nick. Body weights were measured weekly beginning prior to treatment. […]
Raw data was reviewed (read and understood) for accuracy. […]

Turning to `c1cncc(C2=NOCC(CN3CCCCC3)N2)c1` (centres unmarked) [iroxanadine, 5,6-dihydro-5(1-piperidinyl)-methyl-3-(3-pyridyl)-4H-1,2,4-oxadiazine], the “acute oral LD50” value in data set [1] is 3800 mg/kg. Besides, the “tolerability of the highest dose relative to maximum tolerated dose (MTD)” value in data set [2] (200 mg/kg QD PO, administered with EtOH) was “may be above the maximum tolerated dose (MTD) and approaching LD50”. For the same compound, the “unplanned mice deaths outside of the study protocol” value in data set [2] (highest dose 200 mg/kg QD PO, Groups (2) and (8), formulation contained EtOH Days 0-8) is “Eight of the nine deaths”. For the same compound, the “effect on body weight” value in data set [2] (mice, daily until wound closure, FIG. 1A-B) is reported as “No significant effect on body weight was observed except in diabetic animals treated with the highest dose”. Moreover, the “no observed adverse effect level (NOAEL)” value in data set [3] is listed as 400 mg/kg.

For `[O-][n+]1cccc(/C(Cl)=N/OC[C@H](O)CN2CCCCC2)c1` [arimoclomol, N-[2-hydroxy-3-(1-piperidinyl)propoxy]-pyridine-1-oxide-3-carboximidoyl chloride], the “wound healing over time” value in data set [4] is “clearly showed an accelerated healing of wounds”. In data set [5] (rate analysed for Days 0-8 (with ethanol) and Days 9-12 (no ethanol), FIG. 5E), the wound closure rate result is “statistically relevant increase in the wound closure rate”. Moreover, the “odds of closure of both wounds (hazard ratio, proportional hazard model)” value in data set [5] (relative to homozygous diabetic control Group (3), iroxanadine 10-200 mg/kg Groups (4)-(8), arimoclomol 200 mg/kg Group 9, QD PO, FIG. 4) is on record as “appeared to be effective in increasing the odds of wound closure”.
